Non-standard residues stand in square brackets, D forms with d. Residues, ends and D or L forms follow the SMILES beside them. Some results are limits rather than exact numbers.

`CC[C@@H](C)[C@@H](NC(=O)[C@@H](C)NC(=O)[C@@H](CCC(=O)O)NC(=O)[C@H](NC(=O)[C@@H](CC(C)C)NC(=O)[C@@H](CCC(=O)O)NC(=O)CNC(=O)[C@@H](C)NC(=O)[C@@H](C)NC(=O)[C@@H](CC(C)C)NC(=O)[C@H](NC(=O)[C@@H](Cc1ccccc1)NC(=O)[C@@H](CC(C)C)NC(=O)[C@@H](CCC(=O)O)NC(=O)[C@@H](CC(C)C)NC(=O)[C@@H](Cc1ccccc1)NC(=O)[C@@H](C)NC(=O)[C@@H](CCCCN)NC(=O)CNC(=O)[C@H](N)CCCNC(=N)N)[C@H](C)CC)[C@H](C)CC)C(=O)N[C@H](CC(=O)O)C(=O)N[C@H](CCCNC(=N)N)C(=O)N[C@@H](C(=O)N[C@H](Cc1ccccc1)C(=O)N[C@@H](C(=O)NCC(=O)N[C@H](CCC(=O)O)C(=O)N[C@H](C)C(=O)N[C@H](Cc1c[nH]cn1)C(=O)O)[C@H](C)O)[C@H](C)O` (H-[dR]G[dK][dA][dF][dL][dE][dL][dF][dI][dL][dA][dA]G[dE][dL][dI][dE][dA][dI][dD][dR][dT][dF][dT]G[dE][dA][dH]-OH) showed a peptide remaining after proteinase K exposure greater than 88%.

The values are drawn from PMC11117309.
